IC50 data for eleven molecules are collected here from US9656988B2 (Pharmacyclics LLC, priority 2013, dated 2017).

Read-outs that look alike come from different tables or passages of the source.

This experiment deals with BTK (Homo sapiens (Human), UniProt Q06187). Briefly: Btk in vitro inhibitory activity (one of Method A TR-FRET, Method B electrophoretic mobility shift, Method C radiometric filter binding). In kind it is biochemical.
Setting [1] is: determined using one of the methods of Example 355a, 355b and 355c, read-out: BTK IC50.

BTK, sequence (Q06187 whole entry): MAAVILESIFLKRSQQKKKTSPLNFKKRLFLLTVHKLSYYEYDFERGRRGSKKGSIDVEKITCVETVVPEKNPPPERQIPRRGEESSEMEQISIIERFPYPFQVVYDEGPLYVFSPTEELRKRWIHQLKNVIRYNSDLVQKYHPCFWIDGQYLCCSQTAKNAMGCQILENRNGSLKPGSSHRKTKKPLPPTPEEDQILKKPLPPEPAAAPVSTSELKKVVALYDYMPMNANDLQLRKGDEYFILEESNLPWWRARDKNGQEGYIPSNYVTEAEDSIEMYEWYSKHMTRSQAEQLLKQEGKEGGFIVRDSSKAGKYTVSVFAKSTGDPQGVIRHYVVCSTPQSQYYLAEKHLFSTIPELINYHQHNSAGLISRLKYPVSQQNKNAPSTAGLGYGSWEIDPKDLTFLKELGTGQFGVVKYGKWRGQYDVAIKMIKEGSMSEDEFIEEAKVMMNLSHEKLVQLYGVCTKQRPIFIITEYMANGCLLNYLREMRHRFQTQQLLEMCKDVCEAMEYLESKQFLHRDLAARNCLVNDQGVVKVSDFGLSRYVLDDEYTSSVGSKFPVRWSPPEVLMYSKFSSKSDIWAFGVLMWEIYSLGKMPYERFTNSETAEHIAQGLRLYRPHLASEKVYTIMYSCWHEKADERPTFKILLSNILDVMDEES

`CCN(CC)C(=O)N[C@@H]1CCCN(c2nnc(C(N)=O)c(Nc3ccc(C(=O)N4CCOCC4)cc3)n2)C1` [Example 99, (R)-3-(3-(3,3-diethylureido)piperidin-1-yl)-5-(4-(morpholine-4-carbonyl)phenylamino)-1,2,4-triazine-6-carboxamide]: the IC50 (read-out: Btk (IC50)) is less than 10 nM. As to `COc1ccc(C(=O)N[C@@H]2CCCN(c3cnc(C(N)=O)c(Nc4ccc(N5CCC(C(=O)N(C)C)CC5)cc4)n3)C2)cc1` [Example 144, (R)-3-(4-(4-(dimethylcarbamoyl)piperidin-1-yl)phenylamino)-5-(3-(4-methoxybenzamido)piperidin-1-yl)pyrazine-2-carboxamide], the IC50 is, setting by setting: (Btk (IC50)) less than 10 nM; under setting [1], less than 10 nM. For `CCN(CC)C(=O)N[C@@H]1CCCN(c2cnc(C(N)=O)c(Nc3ccc(C4CCN(C)CC4)cc3)n2)C1` [Example 167, (R)-5-(3-(3,3-diethylureido)piperidin-1-yl)-3-(4-(1-methylpiperidin-4-yl)phenylamino)pyrazine-2-carboxamide], the IC50 is, setting by setting: under setting [1], less than 10 nM; (read-out: Btk (IC50)) less than 10 nM. With `CN(C)C(=O)N[C@@H]1CCCN(c2cnc(C(N)=O)c(Nc3ccc(C4CCN(C5CCCC5)CC4)cc3)n2)C1` [Example 155, (R)-3-(4-(1-cyclopentylpiperidin-4-yl)phenylamino)-5-(3-(3,3-dimethylureido)piperidin-1-yl)pyrazine-2-carboxamide], the IC50 is less than 10 nM under setting [1] and less than 10 nM (read-out: Btk (IC50)).

`NC(=O)c1nnc(N2CCC[C@@H](NC(=O)N3CCCCC3)C2)nc1Nc1ccc(C2CCNCC2)cc1` [Example 335, (R)-5-(4-(piperidin-4-yl)phenylamino)-3-(3-(piperidine-1-carboxamido)piperidin-1-yl)-1,2,4-triazine-6-carboxamide]: the IC50 under setting [1] was less than 10 nM. As for `CN(C)C(=O)N[C@@H]1CCCN(c2cnc(C(N)=O)c(Nc3ccc(C4(C)CCN(C(=O)N(C)C)CC4)cc3)n2)C1` [Example 223, (R)-3-(4-(1-(dimethylcarbamoyl)-4-methylpiperidin-4-yl)phenylamino)-5-(3-(3,3-dimethylureido)piperidin-1-yl)pyrazine-2-carboxamide], the IC50 is less than 10 nM under setting [1] and less than 10 nM (read-out: Btk (IC50)). Turning to `NC(=O)c1nnc(N2CCC[C@@H](NC(=O)c3ccccn3)C2)nc1Nc1ccc(C(=O)N2CCOCC2)cc1` [Example 12, (R)-5-(4-(morpholine-4-carbonyl)phenylamino)-3-(3-(picolinamido)piperidin-1-yl)-1,2,4-triazine-6-carboxamide], the IC50 under setting [1] was less than 10 nM.

As to `NC(=O)c1nnc(N2CCC[C@@H](NC(=O)C(=O)N3CCCCC3)C2)nc1Nc1ccc(C(=O)N2CCOCC2)cc1` [Example 83, (R)-5-(4-(morpholine-4-carbonyl)phenylamino)-3-(3-(2-oxo-2-(piperidin-1-yl)acetamido)piperidin-1-yl)-1,2,4-triazine-6-carboxamide], the half-inhibitory concentration (IC50) lay within 100 to 1000 nM (Btk (IC50)) and 100 to 1000 nM under setting [1]. For `CC(C)(C)OC(=O)N1CC[C@@H](Nc2nnc(C(N)=O)c(Nc3ccc(C(=O)N4CCOCC4)cc3)n2)C1` [Example 68, (R)-tert-butyl 3-(6-carbamoyl-5-(4-(morpholine-4-carbonyl)phenylamino)-1,2,4-triazin-3-ylamino)pyrrolidine-1-carboxylate], the IC50 under setting [1] lay within 100 to 1000 nM. As for `CCC(=O)N1CCC(c2ccc(Nc3nc(N4CCC[C@@H](NC(=O)N5CCCCC5)C4)nnc3C(N)=O)cc2)CC1` [Example 339, (R)-3-(3-(piperidine-1-carboxamido)piperidin-1-yl)-5-(4-(1-propionylpiperidin-4-yl)phenylamino)-1,2,4-triazine-6-carboxamide], the IC50 was less than 10 nM under setting [1] and less than 10 nM (read-out: Btk (IC50)).

For the molecule `CN(C)C(=O)N[C@@H]1CCCN(c2cnc(C(N)=O)c(Nc3ccc(C4CCN(CCOCCO)CC4)cc3)n2)C1` [Example 177, (R)-5-(3-(3,3-dimethylureido)piperidin-1-yl)-3-(4-(1-(2-(2-hydroxyethoxy)ethyl)piperidin-4-yl)phenylamino)pyrazine-2-carboxamide], the IC50 runs as follows: under setting [1], less than 10 nM; (read-out: Btk (IC50)) less than 10 nM.
